Results published in ChEMBL document CHEMBL5230089, “Small-Molecule Fms-like Tyrosine Kinase 3 Inhibitors: An Attractive and Efficient Method for the Treatment of Acute Myeloid Leukemia” (J Med Chem, 2020).
Each block holds one compound with its values, some of them ahead of it.

Assays:
MV4-11 [1] = assay: cells; details: Homo sapiens, MV4-11, 48 h
Description: Antiproliferative activity against human MV4-11 cells assessed as reduction in cell viability after 48 hrs by Alamar Blue assay

Aurora kinase A = molecular target: T1, Aurora kinase A (Homo sapiens, UniProt O14965); assay: Inhibition of Aurora-A (unknown origin)
T1 sequence (O14965 whole entry): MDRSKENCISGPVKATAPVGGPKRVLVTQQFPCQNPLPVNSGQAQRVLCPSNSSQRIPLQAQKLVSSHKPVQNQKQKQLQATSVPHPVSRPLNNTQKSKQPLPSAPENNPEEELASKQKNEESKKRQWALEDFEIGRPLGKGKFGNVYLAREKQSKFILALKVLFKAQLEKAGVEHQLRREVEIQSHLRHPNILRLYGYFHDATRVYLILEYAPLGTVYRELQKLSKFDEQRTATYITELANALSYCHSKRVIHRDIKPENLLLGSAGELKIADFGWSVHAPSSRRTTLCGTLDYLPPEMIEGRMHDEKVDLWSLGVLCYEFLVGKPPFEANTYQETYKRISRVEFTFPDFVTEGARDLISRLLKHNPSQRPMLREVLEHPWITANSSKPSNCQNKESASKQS

[2] = molecular target: T2, Receptor-type tyrosine-protein kinase FLT3 (Homo sapiens, UniProt P36888, ITD)
MOLM-13 [3] = assay: cells; details: Homo sapiens, MOLM-13, 72 h
Description: Cytotoxicity against human MOLM-13 cells assessed as reduction in cell viability incubated for 72 hrs

MOLM-13 [4] = assay: cells; details: Homo sapiens, MOLM-13, 72 h; remark: listed apart in the source
BaF3 [5] = assay: cells; details: Mus musculus, BaF3, 72 h
MOLM-14 [6] = assay: cells; details: Homo sapiens, MOLM-14, 72 h
[7] = molecular target: Tyrosine-protein kinase JAK2 (Homo sapiens, UniProt O60674); assay: Inhibition of JAK2 (unknown origin) in presence of ATP
Tyrosine-protein kinase JAK2, sequence (O60674 whole entry): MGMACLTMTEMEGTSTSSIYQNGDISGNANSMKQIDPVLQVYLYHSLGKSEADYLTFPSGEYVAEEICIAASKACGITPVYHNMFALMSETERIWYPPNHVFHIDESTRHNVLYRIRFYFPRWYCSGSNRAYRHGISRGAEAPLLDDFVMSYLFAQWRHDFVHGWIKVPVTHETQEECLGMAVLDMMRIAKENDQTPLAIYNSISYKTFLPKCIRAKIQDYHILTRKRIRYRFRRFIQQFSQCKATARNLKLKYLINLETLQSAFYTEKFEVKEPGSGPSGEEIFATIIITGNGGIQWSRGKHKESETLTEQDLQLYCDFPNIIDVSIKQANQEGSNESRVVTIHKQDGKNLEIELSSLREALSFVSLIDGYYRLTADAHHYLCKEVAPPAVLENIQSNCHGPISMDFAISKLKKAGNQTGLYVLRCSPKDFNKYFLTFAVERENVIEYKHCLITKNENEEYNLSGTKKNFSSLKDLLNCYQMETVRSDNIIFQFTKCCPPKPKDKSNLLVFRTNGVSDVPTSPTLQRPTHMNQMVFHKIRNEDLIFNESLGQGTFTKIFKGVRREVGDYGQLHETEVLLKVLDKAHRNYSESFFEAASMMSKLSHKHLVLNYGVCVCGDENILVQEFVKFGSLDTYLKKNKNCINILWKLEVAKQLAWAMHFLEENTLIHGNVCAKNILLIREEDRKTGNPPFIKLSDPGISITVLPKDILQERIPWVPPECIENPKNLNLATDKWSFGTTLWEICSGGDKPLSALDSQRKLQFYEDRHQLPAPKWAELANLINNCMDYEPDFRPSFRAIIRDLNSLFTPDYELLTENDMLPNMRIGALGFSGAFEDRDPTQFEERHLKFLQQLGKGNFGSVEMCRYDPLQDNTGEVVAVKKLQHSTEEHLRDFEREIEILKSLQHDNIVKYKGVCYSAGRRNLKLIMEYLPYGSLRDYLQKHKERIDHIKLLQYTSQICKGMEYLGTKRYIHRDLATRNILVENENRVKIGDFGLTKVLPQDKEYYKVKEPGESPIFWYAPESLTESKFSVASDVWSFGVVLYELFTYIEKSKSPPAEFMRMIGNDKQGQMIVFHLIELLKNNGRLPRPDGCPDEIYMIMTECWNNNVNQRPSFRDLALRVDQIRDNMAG

[8] = Antiproliferative activity against human MOLM16 cells expressing FLT3-ITD mutant assessed as inhibition of cell proliferation measured after 72 hrs by celltiter-glo luminescent cell viability assay; assay type: functional, cell-based, MOLM-16; details: MOLM16, 72 h
MV4-11 [9] = assay: Antiproliferative activity against human MV4-11 cells assessed as reduction in cell proliferation measured after 24 hrs by MTT assay; assay type: functional, cell-based; details: MV4-11, 24 h
MV4-11 [10] = assay: Antiproliferative activity against human MV4-11 cells assessed as cell growth inhibition measured after 72 hrs by cell titer-Blue assay; assay type: functional, cell-based; details: MV4-11, 72 h
[11] = molecular target: Receptor-type tyrosine-protein kinase FLT3 (Homo sapiens, UniProt P36888, D835Y); assay: Inhibition of FLT3-D835Y mutant phosphorylation in human MOLM-14 cell incubated for 2 hrs; assay type: cell-based
[12] = molecular target: T2, Receptor-type tyrosine-protein kinase FLT3; assay: Inhibition of FLT3-ITD mutant phosphorylation in human MOLM-14 cell incubated for 2 hrs; assay type: cell-based
MOLM-14 [13] = assay: Antiproliferative activity against human MOLM-14 cells assessed as cell growth inhibition measured after 72 hrs by cell titer-Blue assay; assay type: functional, cell-based; details: MOLM-14, 72 h
[14] = molecular target: Receptor-type tyrosine-protein kinase FLT3 (Homo sapiens, UniProt P36888); assay: Binding affinity to human FLT3 assessed as dissociation constant
MV4-11 [15] = assay: cells; details: Homo sapiens, MV4-11, 72 h
Description: Cytotoxicity against human MV4-11 cells assessed as cell viability incubated for 72 hrs by Cell titer-blue assay

MOLM-14 [16] = assay: Cytotoxicity against human MOLM-14 cells assessed as reduction in cell viability incubated for 72 hrs; assay type: functional, cell-based; details: MOLM-14, 72 h
MOLM-13 [17] = assay: Cytotoxicity against human MOLM-13 cells assessed as cell viability incubated for 72 hrs by Cell titer-blue assay; assay type: functional, cell-based; details: MOLM-13, 72 h
BaF3 [18] = assay: cells; details: Mus musculus, BaF3, 72 h; remark: listed apart in the source
MV4-11 [19] = assay: Cytotoxicity activity against human MV4-11 cells assessed as reduction in cell viability measured after 48 hrs; assay type: functional, cell-based; details: MV4-11, 48 h
MOLM-13 [20] = assay: Cytotoxicity activity against human MOLM-13 cells assessed as reduction in cell viability measured after 48 hrs; assay type: functional, cell-based; details: MOLM-13, 48 h
RS4-11 = assay: Growth inhibition human RS4-11 cell assessed as reduction in cell viability at 50 uM measured after 72 hrs by CCK8 assay; assay type: functional
MV4-11 [21] = assay: Growth inhibition of human MV4-11 cells assessed as reduction in cell viability at 50 uM measured after 72 hrs by CCK8 assay; assay type: functional
[22] = molecular target: T3, Receptor-type tyrosine-protein kinase FLT3 (Homo sapiens, UniProt P36888); assay: Inhibition of FLT3 (unknown origin)
T3 sequence (P36888 whole entry): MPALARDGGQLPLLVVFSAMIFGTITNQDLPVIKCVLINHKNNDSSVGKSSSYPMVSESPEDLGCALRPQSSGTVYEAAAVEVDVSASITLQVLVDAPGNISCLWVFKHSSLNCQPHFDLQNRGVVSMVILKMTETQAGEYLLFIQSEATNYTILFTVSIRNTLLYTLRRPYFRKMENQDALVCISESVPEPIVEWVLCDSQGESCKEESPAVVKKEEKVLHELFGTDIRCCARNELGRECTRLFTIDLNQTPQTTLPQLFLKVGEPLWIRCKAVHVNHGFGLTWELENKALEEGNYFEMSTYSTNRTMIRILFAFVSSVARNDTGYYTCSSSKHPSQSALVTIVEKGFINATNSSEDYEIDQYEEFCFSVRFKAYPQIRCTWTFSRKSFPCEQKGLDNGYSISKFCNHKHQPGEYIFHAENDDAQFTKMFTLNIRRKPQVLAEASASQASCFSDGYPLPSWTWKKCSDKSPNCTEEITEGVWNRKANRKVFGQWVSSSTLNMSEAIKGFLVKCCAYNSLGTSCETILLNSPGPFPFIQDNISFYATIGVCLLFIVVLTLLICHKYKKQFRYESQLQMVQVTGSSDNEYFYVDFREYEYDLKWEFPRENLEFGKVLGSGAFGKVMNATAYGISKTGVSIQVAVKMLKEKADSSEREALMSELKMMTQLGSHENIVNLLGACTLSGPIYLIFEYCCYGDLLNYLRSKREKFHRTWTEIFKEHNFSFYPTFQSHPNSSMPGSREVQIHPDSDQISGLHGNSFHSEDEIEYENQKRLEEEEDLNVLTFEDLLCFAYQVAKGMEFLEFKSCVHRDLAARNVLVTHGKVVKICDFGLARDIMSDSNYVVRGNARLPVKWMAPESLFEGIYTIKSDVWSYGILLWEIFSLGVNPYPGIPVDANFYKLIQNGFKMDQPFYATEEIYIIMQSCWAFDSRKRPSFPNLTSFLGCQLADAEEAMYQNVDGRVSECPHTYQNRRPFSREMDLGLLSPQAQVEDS

[23] = tested on: Receptor-type tyrosine-protein kinase FLT3 (Homo sapiens), P36888 [UNDEFINED MUTATION]
[24] = molecular target: T3, Receptor-type tyrosine-protein kinase FLT3; assay: Inhibition of FLT3 (unknown origin) autophosphorylation expressed in human Leukemia cells; assay type: cell-based, Leukemia cell
cells = details: Homo sapiens, TF cell, 72 h
BaF3 [25] = assay: Antiproliferative activity against mouse BaF3 FLT3-D835 cells assessed as reduction in cell viability measured after 72 hrs by MTS assay; assay type: functional, cell-based; details: BaF3, 72 h

Structure (SMILES): CC(C)(C)c1cc(NC(=O)Nc2ncc(CCNc3ncnc4[nH]c(-c5ccccc5)cc34)s2)no1
IC50 (MV4-11 [1]): 7 nM
IC50 (Aurora kinase A): 15 nM
IC50 [2]: 67 nM
IC50 (MOLM-13 [3]): 7 nM

Structure (SMILES): COc1cc2c(N3CCN(C(=O)Nc4ccc(OC(C)C)cc4)CC3)ncnc2cc1OCCCN1CCCCC1 [TANDUTINIB]
IC50 (MOLM-13 [4]): 10 nM
IC50 (BaF3 [5]): 10 nM
IC50 (MOLM-14 [6]): 10 nM

Structure (SMILES): Cc1[nH]c(/C=C2\C(=O)Nc3ccc(F)cc32)c(C)c1NC(=O)[C@@H]1CCCN1
IC50 (MV4-11 [1]): 24.8 nM
IC50 [2]: 5.3 nM
IC50 (MOLM-13 [3]): 23.6 nM

Structure (SMILES): CC(C)Nc1ccnc(Nc2cccc(-c3cccnc3)c2)n1
Kd [14]: 3.6 nM
EC50 (MV4-11 [15]): 25 nM

Structure (SMILES): CC1(COc2ccc3c(c2)ncn3-c2ccc3cccc(N4CCC(N)CC4)c3n2)COC1 [CRENOLANIB]
IC50 (MOLM-13 [4]): 2 nM
IC50 (MOLM-14 [16]): 2 nM
IC50 (MOLM-13 [17]): 2.9 nM
IC50 (MV4-11 [1]): 1.3 nM
IC50 (MOLM-14 [6]): 2 nM
IC50 (MOLM-13 [3]): 4.9 nM
IC50 (BaF3 [18]): 1.3 nM
IC50 (MV4-11 [15]): 0.92 nM

Structure (SMILES): CC(=O)OC[C@H]1O[C@@H](N2N=C(C(F)(F)F)/C(=N\Nc3cccc(C(F)(F)F)c3)C2=O)[C@H](OC(C)=O)[C@@H](OC(C)=O)[C@@H]1OC(C)=O
IC50 (MV4-11 [19]): 4700 nM
IC50 (MOLM-13 [20]): 4040 nM

Structure (SMILES): O=C(c1ccc(CN2CCCCC2)cc1)N1CCc2nc(-c3cc4cc(F)ccc4[nH]c3=O)[nH]c2C1
GI50 (RS4-11): 4860 nM
GI50 (MV4-11 [21]): 260 nM
IC50 [22]: 0.57 nM

Structure (SMILES): Cc1cc2ncc(-c3ccccc3)nc2cc1C [AG1295]
IC50 (MV4-11 [1]): 2200 nM
IC5 [23]: 32 nM

Structure (SMILES): CCc1nc(C(N)=O)c(Nc2ccc(N3CCC(N4CCN(C)CC4)CC3)c(OC)c2)nc1NC1CCOCC1 [GILTERITINIB]
IC50 (cells): 1.4 nM
IC50 (BaF3 [25]): 0.7 nM
IC50 (MOLM-14 [6]): 1.8 nM

The next lines start with results.

IC50 [7]: 67.2 nM
Structure (SMILES): Cn1c2ccccc2c2c3c(c4c5ccccc5n(CCC#N)c4c21)CNC3=O [GO-6976]

IC50 (MOLM-13 [4]): 13 nM
IC50 (MV4-11 [9]): 12.3 nM
Structure (SMILES): C[C@]12O[C@H](C[C@H](O)[C@H]1O)n1c3ccccc3c3c4c(c5c6ccccc6n2c5c31)C(=O)NC4=O
IC50 [8]: 27 nM

IC50 (MV4-11 [10]): 0.5 nM
IC50 [11]: 16.6 nM
IC50 [12]: 0.5 nM
IC50 (MOLM-14 [13]): 0.5 nM
Structure (SMILES): Cc1ncc(C(=O)Nc2ccc(CN3CCN(C)CC3)c(C(F)(F)F)c2)cc1C#Cc1c(N)ncc2ccc(F)cc12

IC50 (MV4-11 [9]): < 0.25 nM
IC50 [24]: 0.1 nM
Structure (SMILES): CNC(=O)[C@@]1(N)C[C@H]2O[C@]1(C)n1c3ccccc3c3c4c(c5c6ccccc6n2c5c31)C(=O)NC4
